ChEMBL document CHEMBL1255172, “Discovery and structure-activity relationship of a novel spirocarbamate series of NPY Y5 antagonists” (Bioorg Med Chem Lett, 2010)

Experiments:
Cytochrome P450 1A2 = target: T1, Cytochrome P450 1A2 (Homo sapiens, UniProt P05177); assay: Inhibition of CYP1A2; type: ADME
T1 sequence (P05177 whole entry): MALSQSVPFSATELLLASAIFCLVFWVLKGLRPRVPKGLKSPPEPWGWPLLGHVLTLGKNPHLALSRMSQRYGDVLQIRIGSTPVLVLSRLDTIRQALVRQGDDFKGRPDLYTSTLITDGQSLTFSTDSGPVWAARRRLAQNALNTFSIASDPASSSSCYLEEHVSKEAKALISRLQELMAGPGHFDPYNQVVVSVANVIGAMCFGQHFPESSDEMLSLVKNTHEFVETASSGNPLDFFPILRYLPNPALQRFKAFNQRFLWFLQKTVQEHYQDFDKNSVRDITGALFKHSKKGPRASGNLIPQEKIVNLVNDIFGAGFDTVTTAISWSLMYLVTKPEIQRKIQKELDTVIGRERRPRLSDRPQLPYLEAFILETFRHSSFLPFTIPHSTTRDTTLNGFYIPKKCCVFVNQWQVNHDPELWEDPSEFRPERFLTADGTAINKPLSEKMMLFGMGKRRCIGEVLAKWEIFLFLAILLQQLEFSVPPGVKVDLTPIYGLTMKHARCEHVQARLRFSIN

Cytochrome P450 3A4 = Cytochrome P450 3A4 (Homo sapiens, UniProt P08684); assay: Inhibition of CYP3A4; type: ADME
[1] = target: T2, Neuropeptide Y receptor type 5 (Homo sapiens, UniProt Q15761); assay: Antagonist activity at human NPY Y5 receptor; type: functional
T2 sequence (Q15761 whole entry): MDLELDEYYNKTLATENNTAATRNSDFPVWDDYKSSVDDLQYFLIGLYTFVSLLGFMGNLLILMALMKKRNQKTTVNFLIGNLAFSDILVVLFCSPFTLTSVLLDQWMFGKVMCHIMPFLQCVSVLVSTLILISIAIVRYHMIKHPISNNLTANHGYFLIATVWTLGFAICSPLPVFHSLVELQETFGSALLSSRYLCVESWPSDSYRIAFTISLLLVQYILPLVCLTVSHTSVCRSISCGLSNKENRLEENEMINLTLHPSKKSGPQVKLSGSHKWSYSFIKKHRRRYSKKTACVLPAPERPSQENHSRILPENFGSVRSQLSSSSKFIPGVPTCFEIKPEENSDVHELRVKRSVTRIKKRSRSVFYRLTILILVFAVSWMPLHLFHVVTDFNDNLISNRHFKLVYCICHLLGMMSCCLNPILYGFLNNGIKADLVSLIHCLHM

Cytochrome P450 2D6 = Cytochrome P450 2D6 (Homo sapiens, UniProt P10635); assay: Inhibition of CYP2D6; type: ADME
[2] = Protein binding in rat brain assessed as unbound fraction; type: ADME, tissue-based; conditions: brain tissue
Cytochrome P450 2C19 = Cytochrome P450 2C19 (Homo sapiens, UniProt P33261); assay: Inhibition of CYP2C19; type: ADME
Cytochrome P450 2C9 = Cytochrome P450 2C9 (Homo sapiens, UniProt P11712); assay: Inhibition of CYP2C9; type: ADME
Liver microsomes [3] = assay: Intrinsic clearance in rat liver microsome; type: ADME
[4] = Ratio of drug uptake from blood to brain in rat; type: ADME, tissue-based; conditions: brain and blood
Liver microsomes [5] = assay: Intrinsic clearance in human liver microsome; type: ADME
Rattus norvegicus = assay: In vivo antagonist activity at NPY Y5 receptor in orally dosed rat assessed as reduction in food intake; conditions: oral, read-out: MED
[6] = Clearance in rat blood at 0.5 mg/kg, iv and 1 mg/kg, po; type: ADME, organism-based; conditions: whole blood
[7] = Oral bioavailability in rat at 1 mg/kg; type: ADME, organism-based; conditions: in vivo

Sequence of Cytochrome P450 2D6 (P10635 whole entry): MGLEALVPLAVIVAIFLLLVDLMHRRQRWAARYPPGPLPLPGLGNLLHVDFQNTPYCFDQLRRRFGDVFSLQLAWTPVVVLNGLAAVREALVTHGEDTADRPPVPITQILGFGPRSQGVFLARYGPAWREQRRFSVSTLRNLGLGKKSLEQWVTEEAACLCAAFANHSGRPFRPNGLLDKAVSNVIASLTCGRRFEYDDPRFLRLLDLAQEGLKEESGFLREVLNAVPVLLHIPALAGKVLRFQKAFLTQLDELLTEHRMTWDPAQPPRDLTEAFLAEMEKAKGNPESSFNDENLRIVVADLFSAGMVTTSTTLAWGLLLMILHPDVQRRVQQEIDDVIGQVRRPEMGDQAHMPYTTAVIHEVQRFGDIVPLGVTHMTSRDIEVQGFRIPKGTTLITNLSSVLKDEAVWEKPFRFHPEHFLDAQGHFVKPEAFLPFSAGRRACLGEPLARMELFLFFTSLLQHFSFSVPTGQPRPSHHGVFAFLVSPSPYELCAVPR
Sequence of Cytochrome P450 2C9 (P11712 whole entry): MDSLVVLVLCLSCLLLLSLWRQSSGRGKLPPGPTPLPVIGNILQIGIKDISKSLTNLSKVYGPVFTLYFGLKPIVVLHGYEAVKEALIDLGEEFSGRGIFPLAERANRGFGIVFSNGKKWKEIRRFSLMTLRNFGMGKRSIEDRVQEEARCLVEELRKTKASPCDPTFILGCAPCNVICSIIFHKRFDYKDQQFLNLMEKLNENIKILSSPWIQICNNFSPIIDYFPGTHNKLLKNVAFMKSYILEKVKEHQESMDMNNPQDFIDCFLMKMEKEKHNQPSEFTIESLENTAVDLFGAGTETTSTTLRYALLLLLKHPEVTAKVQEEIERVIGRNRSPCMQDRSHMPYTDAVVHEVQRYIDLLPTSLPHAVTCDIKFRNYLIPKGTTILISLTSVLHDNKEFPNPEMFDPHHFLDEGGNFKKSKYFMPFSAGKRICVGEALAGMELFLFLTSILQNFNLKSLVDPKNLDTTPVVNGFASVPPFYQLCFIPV
Sequence of Cytochrome P450 3A4 (P08684 whole entry): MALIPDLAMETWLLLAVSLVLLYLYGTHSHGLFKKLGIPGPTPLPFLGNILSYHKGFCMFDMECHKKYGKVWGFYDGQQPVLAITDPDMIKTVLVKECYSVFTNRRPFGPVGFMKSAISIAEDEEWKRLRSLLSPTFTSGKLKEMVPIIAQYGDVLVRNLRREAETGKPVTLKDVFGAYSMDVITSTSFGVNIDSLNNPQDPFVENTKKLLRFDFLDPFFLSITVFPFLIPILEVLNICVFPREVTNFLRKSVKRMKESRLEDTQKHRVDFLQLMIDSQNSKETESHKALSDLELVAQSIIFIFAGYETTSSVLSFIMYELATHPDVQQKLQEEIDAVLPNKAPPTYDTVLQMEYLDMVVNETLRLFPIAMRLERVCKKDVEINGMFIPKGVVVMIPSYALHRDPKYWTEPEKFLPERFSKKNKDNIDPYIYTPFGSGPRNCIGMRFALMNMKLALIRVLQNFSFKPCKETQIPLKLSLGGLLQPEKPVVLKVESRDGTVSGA
Sequence of Cytochrome P450 2C19 (P33261 whole entry): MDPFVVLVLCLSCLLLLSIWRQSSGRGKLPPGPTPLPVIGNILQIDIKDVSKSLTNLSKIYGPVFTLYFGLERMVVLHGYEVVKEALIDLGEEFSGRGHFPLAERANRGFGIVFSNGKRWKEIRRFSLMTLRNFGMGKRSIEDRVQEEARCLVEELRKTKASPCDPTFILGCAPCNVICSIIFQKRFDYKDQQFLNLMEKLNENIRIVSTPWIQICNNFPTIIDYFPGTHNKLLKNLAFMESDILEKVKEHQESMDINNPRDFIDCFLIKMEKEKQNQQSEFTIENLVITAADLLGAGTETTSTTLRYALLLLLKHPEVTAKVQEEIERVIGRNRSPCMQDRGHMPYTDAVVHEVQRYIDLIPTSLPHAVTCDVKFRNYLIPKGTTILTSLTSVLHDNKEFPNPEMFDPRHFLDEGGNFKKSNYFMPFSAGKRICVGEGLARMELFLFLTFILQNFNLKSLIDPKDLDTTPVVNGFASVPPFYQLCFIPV

Row | Structure (SMILES) | INH (Cytochrome P450 1A2) [µM] | INH (Cytochrome P450 3A4) [µM] | Ki [1] [nM] | INH (Cytochrome P450 2D6) [µM] | fraction unbound [2] | INH (Cytochrome P450 2C19) [µM] | INH (Cytochrome P450 2C9) [µM] | CL (Liver microsomes [3]) [mL/min/g] | Kp [4] | CL (Liver microsomes [5]) [mL/min/g] | minimal effective dose (Rattus norvegicus) [mg/kg] | clearance [6] [mL/min/kg] | bioavailability [7] [%]
1 | O=C1O[C@]2(CC[C@H](CNc3ncc(-c4ccccc4F)cn3)CC2)CN1c1ccccn1 | 6 | 5 | 0.316 | > 10 | < 0.01 | 4 | 1 |  |  |  |  |  | 
2 | O=C1O[C@]2(CC[C@H](CNc3cnn(-c4ccccc4F)c3)CC2)CN1c1cncnc1 | > 10 | 2 | 0.0398 | > 10 | 0.044 | 6 | > 10 |  |  |  |  |  | 
3 | O=C1O[C@]2(CC[C@H](CNc3cnn(-c4ccccc4F)c3)CC2)CN1c1cccnc1F | > 10 | 5 | 0.1 | > 10 | 0.019 | 8 | 6 |  |  |  |  |  | 
4 | O=C1O[C@]2(CC[C@H](CNc3cnn(-c4ccccc4F)c3)CC2)CN1c1cnccn1 | > 10 | 0.6 | 0.0631 | 2 | 0.017 | 2 | 3 |  |  |  |  |  | 
5 | O=C1O[C@]2(CC[C@H](CNc3cnn(-c4ccccc4F)c3)CC2)CN1c1cccnn1 | > 10 | > 10 | 0.1 | > 10 | 0.031 |  | > 10 | < 0.5 | 0.9 | < 0.5 | 3 | 13 | 52
6 | O=C1O[C@]2(CC[C@H](CNc3cnn(-c4ccccc4F)c3)CC2)CN1c1ccnnc1 | > 10 | 6 | 0.2 | > 10 | 0.044 | > 10 | > 10 |  |  |  |  |  | 
7 | Cc1nnc(N2C[C@]3(CC[C@@H](CNc4cnn(-c5ccccc5F)c4)CC3)OC2=O)s1 | > 10 | 6 | 0.2 | > 10 | 0.026 | > 10 | > 10 |  |  |  |  |  | 
8 | O=C1O[C@]2(CC[C@H](CNc3ccc(-c4ncccn4)cn3)CC2)CN1c1cccnn1 | > 10 |  | 1.58 | > 10 |  | > 10 | > 10 |  |  |  |  |  | 
9 | O=C1O[C@]2(CC[C@H](CNc3ccc(-c4ccccc4F)nn3)CC2)CN1c1cccnn1 | > 10 | > 10 | 0.158 | > 10 | 0.046 | > 10 | > 10 | < 0.5 | 0.25 | < 0.5 |  | 18 | 90
10 | O=C1O[C@]2(CC[C@H](CNc3ccc(-c4cc(F)cc(F)c4)nn3)CC2)CN1c1cccnn1 | > 10 | > 10 | 0.1 | > 10 | 0.016 |  | 8 | < 0.5 | 1.6 | < 0.5 | 3 | 41 | 75
11 | Cc1ccccc1-c1ccc(NC[C@H]2CC[C@]3(CC2)CN(c2cccnn2)C(=O)O3)nn1 | > 10 | > 10 | 0.0631 | > 10 | 0.051 | > 10 | > 10 |  |  |  |  |  | 
12 | Cc1cccc(-c2ccc(NC[C@H]3CC[C@]4(CC3)CN(c3cccnn3)C(=O)O4)nc2)n1 | > 10 | > 10 | 0.251 | > 10 | 0.056 | > 10 | > 10 |  |  |  |  |  | 
13 | O=C1O[C@]2(CC[C@H](CNc3ccc(-c4ncccc4F)cn3)CC2)CN1c1cccnn1 | > 10 | > 10 | 0.316 | > 10 | 0.052 | > 10 | > 10 |  | 0.4 |  |  | 70 | 50
